Assay results: patent US20090246134A1, “COMPOSITIONS AND METHODS FOR MODULATING GATED ION CHANNELS” (PainCeptor Pharma Corporation, priority 2007, published 2009)
Where “and” joins values, the source holds several entries; their conditions need not be identical. Equal values may be shown once.

How the values were obtained:
[1] = test system: formalin-induced pain in Sprague-Dawley rats; test: Formalin model of acute tonic pain; format: in vivo, rat; details: rat, in vivo
Method: Male Sprague-Dawley rats are housed together in groups of three animals under standard conditions with unrestricted access to food and water. All experiments are conducted according to the ethical guidelines for investigations of experimental pain in conscious animals (Zimmerman, 1983)
Assessment of formalin-induced flinching behavior in normal, uninjured rats (body weight 150-180 g) was made with the use of an Automated Nociception Analyser (University of California, San Diego, USA). Briefly, this involved placing a small C-shaped metal band (10 mm wide×27 mm long) on the hindpaw of the rat to be tested. The rats (four rats were included in each testing session) were then placed in a cylindrical plexiglass observation chamber (diameter 30.5 cm and height 15 cm) for 20 min for adaptation purposes prior to being administered drug or vehicle according to the experimental paradigm being followed. After adaptation, individual rats were then gently restrained and formalin (5% in saline, 50 μl, s.c.) was injected into the plantar surface of the hindpaw using a 27 G needle. Rats were then returned to their separate observation chambers, each of which were in turn situated upon an enclosed detection device consisting of two electromagnetic coils designed to produce an electromagnetic field in which movement of the metal band could be detected. The analogue signal was then digitised and a software algorithm (LabView) applied to enable discrimination of flinching behaviour from other paw movements. A sampling interval of 1 min was used and on the basis of the resulting response patterns 5 phases of nociceptive behaviour were identified and scored: first phase (P1; 0-5 min), interphase (Int; 6-15 min), second phase (P2; […]), phase 2A (P2A; 16-40 min) and phase 2B (P2B; 41-60 min).
Nociceptive behavior was also determined manually every 5 min by measuring the amount of time spent in each of four behavioral categories: 0, treatment of the injected hindpaw is indistinguishable from that of the contralateral paw; 1, the injected paw has little or no weight placed on it; 2, the injected paw is elevated and is not in contact with any surface; 3, the injected paw is licked, bitten, or shaken. A weighted nociceptive score, ranging from 0 to 3 was calculated by multiplying the time spent in each category by the category weight, summing these products, and dividing by the total time for each 5 min block of time. (Coderre et al., Pain 1993; 54: 43). On the basis of the resulting response patterns, 2 phases of nociceptive behavior were identified and scored: first phase (P1; 0-5 min), interphase (Int; 6-15 min), second phase (P2; […]), phase 2A (P2A; 16-40 min) and phase 2B (P2B; 41-60 min).
Statistical analysis was performed using Prism™ 4.01 software package (GraphPad, San Diego, Calif., USA). The difference in response levels between treatment groups and control vehicle group was analyzed using an ANOVA followed by Bonferroni's method for post-hoc pair-wise comparisons. A p value<0.05 was considered to be significant
The effect of Compound A on pain induced by intraplantar formalin injection was investigated. Compound A was administered i.p. 30 min. before the formalin. Compound A was able to reduce the total pain score behavior (flinching, licking, biting) in phase 1 and 2 of the formalin test.

[2] = Liver microsomes stability and metabolite identification (LC-MS), human; format: in vitro ADME
Source text: (§1) The objective of this study is to analyze in vitro samples of Compound A and Compound B from rat and human microsomes using liquid chromatography quadrupole ion trap mass spectrometry and identify the nature of the metabolite(s) for each species.
(§2) The HPLC system consisted of a Thermo Surveror autosampler and a Thermo Surveyor MS pump (San Jose, Calif., USA). The LC-MS/MS system used was a Thermo LCQ Advantage (San Jose, Calif., USA). Data was acquired on a Dell Optiplex desktop computer (Round Rock, Tex., USA) equipped with operation system Windows XP professional. Data acquisition and analysis were performed using XCalibur 1.4 (San Jose, Calif., USA).
(§3) After the incubation period of the liver microsomes, the reaction was stopped with the addition of acetonitrile and frozen for transport. Before analysis, the samples were thawed at room temperature. They were vortexed vigorously and centrifuged at approximately 12000 g for 10 minutes. The supernatant was transferred into an injection vial for analysis.
(§4) A gradient mobile phase was used with a Thermo Phenyl 100×2 mm column with particle size of 5 μm. The initial mobile phase condition consisted of methanol and 0.1% formic acid solution at a ratio of 20:80, respectively. From 0 to 2 minutes, the ratio was maintained at 20:80. From 2 to 10 minutes, a linear gradient was applied and a ratio of 90:10 was maintained from 10 to 12 minutes. […] The flow rate was fixed at 0.25 mL/min.
(§5) The mass spectrometer was interfaced with the HPLC system using a pneumatic assisted electrospray ion source. The sheath gas was set to 15 units and the ESI electrode was set to 4000 V (positive mode). The capillary temperature was set at 300° C., and the capillary voltage was set to 13 V. The mass spectrometer was operating in full scan MS mode using one segment analysis (200-800).

[3] = Liver microsomes stability and metabolite identification (LC-MS), dog; format: in vitro ADME
[4] = Liver microsomes stability and metabolite identification (LC-MS), rat; format: in vitro ADME
Source text: as §1, §2, §3, §4, §5

[5] = Plasma composition analysis, parent compound and metabolites by MS; format: in vivo; details: rat plasma
Method: Rats receive compounds (5 mg/kg) dissolved in HPβCD 15%, dextrose 2.5%, pH 5 by intravenous (i.v). route or (25-30 mg/kg) dissolved in HPβCD 15%, dextrose 2.5%, […] (s.c.) route or (50-150 mg/kg) dissolved in HPβCD 15%, dextrose 2.5%, pH 5 by oral (p.o.) route. After the treatment, approximately 100 μl of blood sample is collected and the accurate bleeding time is recorded for each sample. Each blood sample is collected into Microvette blood collection tube containing anticoagulant lithium heparin. Following collection, the samples are centrifuged at […] for 15 minutes (to avoid haemolysis) and the plasma obtained from each is recovered and stored frozen (at −80° C.) pending analysis. Frozen samples are shipped on dry ice to quantify drug concentration within plasma after extraction procedure as previously described in Example 13.

[6] = human microsomes 60 min (samples 17-19)
[7] = dog microsomes 60 min (samples 26-28)
[8] = rat microsomes 60 min (samples 8-10)

Total % metabolites ([2]; % peak area relative to parent at T0, 60 min incubation, human microsomes): 9.4%
Compound B metabolite identification: m/z 342 [2, 6]: Yes
Compound B metabolite identification: m/z 356 [2, 6]: low
Compound B metabolite identification: m/z 370 (parent) [2, 6]: Yes
Compound B metabolite identification: m/z 386 [2, 6]: Yes
Calc. Conc. ([2]; human microsomes, time 0 min): 4.39 µM and 5.04 µM
Calc. Conc. ([2]; human microsomes, time 60 min): 4.34 µM and 4.59 µM and 5.03 µM
Total % metabolites ([3]; % peak area relative to parent at T0, 60 min incubation, dog microsomes): 4.93%
Compound B metabolite identification: m/z 342 [3, 7]: very weak
Compound B metabolite identification: m/z 356 [3, 7]: very weak
Compound B metabolite identification: m/z 370 (parent) [3, 7]: Yes
Compound B metabolite identification: m/z 386 [3, 7]: low
Calc. Conc. ([3]; dog microsomes, time 0 min): 4.44 µM and 4.56 µM
Calc. Conc. ([3]; dog microsomes, time 60 min): 4.33 µM and 4.38 µM and 4.17 µM
Total % metabolites ([4]; % peak area relative to parent at T0, 60 min incubation, rat microsomes): 12.8%
Compound B metabolite identification: m/z 342 [4, 8]: Yes
Compound B metabolite identification: m/z 356 [4, 8]: Yes
Compound B metabolite identification: m/z 370 (parent) [4, 8]: Yes
Compound B metabolite identification: m/z 386 [4, 8]: Yes
Calc. Conc. ([4]; rat microsomes, time 0 min): 4.95 µM
Calc. Conc. ([4]; rat microsomes, time 60 min): 0.90 µM and 0.92 µM and 0.97 µM
Plasma Component: N-desMe or desEt ([5]; IV 5 mg/kg): Trace
Plasma Component: O-desMe ([5]; IV 5 mg/kg): Trace
Plasma Component: P—OH ([5]; IV 5 mg/kg): Trace
Plasma Component: N-desMe or desEt ([5]; PO 50 mg/kg): Trace
Plasma Component: O-desMe ([5]; PO 50 mg/kg): Trace
Plasma Component: P—OH ([5]; PO 50 mg/kg): Trace
Plasma Component: N-desMe or desEt ([5]; SC 25 mg/kg): Trace
Plasma Component: O-desMe ([5]; SC 25 mg/kg): Trace
Plasma Component: P—OH ([5]; SC 25 mg/kg): Trace
Structure (SMILES): CCN1CCc2c(-c3cc(F)ccc3OC)cc3c(c2C1)NC(=O)/C3=N/O [Compound B, 5-(5-fluoro-2-methoxyphenyl)-6,7,8,9-tetrahydro-3-(hydroxyimino)-8-ethyl-1H-pyrrolo[3,2-h]isoquinoline-2(3H)-one]
acute tonic pain induced by formalin injection in the paw [1]: block
